# Reference: patent US7863350B2, “Food preservation compositions and methods of use thereof” (priority 2007, dated 2011)
# Where “and” joins values, the source holds several entries; their conditions need not be identical. Identical values can stand only once.
# Key:
# Salmonella sp. [1] = assay: Survival of Salmonella on sliced tomato packaged with volatile antimicrobials at about 4° C. (Example 2); assay type: cell-based; settings: for effectiveness against Salmonella on slices: 10 days, origanum 150 μl, basil 75 μl, chlorine dioxide in absorbent or as spray, cyclodextrine forms high level, cinnamaldehyde 35 μl with spray
# Protocol: The effect of volatile antimicrobials on the survival of Salmonella sp. in packaged sliced tomato was determined. The antimicrobials tested were origanum oil, basil oil, cyclodextrine cinnamaldehyde, chlorine dioxide as spray and in absorbent, and allyl isothiocyanate in cyclodextrine. The combinations of cinnamaldehyde with chlorine dioxide and allyl isothiocyanate in cyclodextrine with cinnamaldehyde were also tested.
# (§1) Slices were inoculated with 5 Salmonella strains that included S. poona (cantaloupe associated outbreak), S. stanley H 1256 (Alfafa sprout associated outbreak), S. baildon (tomato associated outbreak), S. typhimurium DT 104 (multiple antibiotic resistant) and S. montevideo (tomato associated outbreak). […] Then, the specified volatile antimicrobials were pipetted into the wells of each package. The inoculated packages were stored at 4±1° C. for 10 days.
# (§2) Inoculated and uninoculated tomato slices were analyzed at days 0 and 10. […] The diluted samples were plated on MacCkonkey agar plates. The plates were incubated at 37° C. for 18 hr and typical Salmonella colonies counted.
# Salmonella [2] = assay: Location of viable Salmonella on tomato slices after storage with antimicrobials; assay type: cell-based; settings: about 4° C.; for viable Salmonella in Portion 1: Table 5
# Protocol: as §1, §2
# Tomato slices were inoculated with Salmonella between slices and placed in trays. […] The day 0 data (data is taken the day after inoculation) presented in Table 4 indicates no difference in the location of the inoculum between the Control 1 trays and the Control 2 tray at “0” time. After 10 days of storage, slices still had Salmonella distributed throughout; however, the distribution differed between Control 1 trays and Control 2 trays. The Salmonella in the Control 2 trays were located primarily at the top most portion of the slice (average of 72% of Salmonella on the top skin), whereas the Control 1 trays had high numbers at the bottom of the slice (average of 41% in bottom two portions). The total number of Salmonella increased on the slices to a similar extent for both tray types (Table 1).
# aerobic microflora [3] = assay: Aerobic Plate Count of the absorbent in trays after 11 days (Example 2); assay type: cell-based; settings: for growth inhibition (APC) in the absorbent over the control absorbent: about 4° C.
# Protocol: (§3) The absorbent in the trays was analyzed for aerobic plate count and salmonella levels at the conclusion of the study. The data was obtained on day 11.
# Salmonella [4] = assay: Salmonella in the absorbent in trays after 11 days (Example 2); assay type: cell-based; settings: about 4° C.
# Protocol: as §3
# Salmonella sp. [5] = assay: Survival of Salmonella on sliced tomatoes with low levels of antimicrobials at 4° C. (Example 3); assay type: cell-based; settings: for Survival of Salmonella on sliced tomatoes, 5 days: about 4° C.
# Protocol: The effect of low levels of specified antimicrobials on survival of Salmonella sp. in packaged sliced tomato under refrigeration (4±1° C.) was determined. The volatile antimicrobials tested were chlorine dioxide, allyl isothiocyanate cyclodextrine, origanum cyclodextrine, cinnamaldehyde cyclodextrine and basil cyclodextrine.
# Slices were inoculated with 5 Salmonella strains that included S. poona (cantaloupe associated outbreak), S. stanley H 1256 (Alfafa sprout associated outbreak), S. baildon (tomato associated outbreak), S. typhimurium DT 104 (multiple antibiotic resistant) and S. montevideo (tomato associated outbreak). […] The inoculated packages were stored at 4±1° C. for 10 days.
# (§4) Inoculated and uninoculated tomato slices were analyzed at 0, 5 and 10 days. […] The plates were incubated at 37° C. for 18 hr and typical Salmonella colonies counted. The absorbent (fluid in case of Control 1 trays) was analyzed for Salmonella and Aerobic Plate Count by plating appropriate dilution of the gel/fluid on MacConkey agar plates and Plate Count Agar.
# aerobic microflora [6] = assay: Aerobic plate count in the absorbent/juice from trays after 10 days (Example 3); assay type: cell-based; settings: about 4° C.
# Protocol: as §4
# Salmonella [7] = assay: Salmonella counts in the absorbent/juice from trays after 10 days (Example 3); assay type: cell-based; settings: about 4° C.
# Protocol: as §4
# Salmonella spp. = assay: Survival of Salmonella spp. in packaged sliced tomato with volatile oils at about 11° C.; assay type: cell-based; settings: for Salmonella on sliced tomatoes, Day 9: 9 days at about 11° C.
# Excerpt: The effect of origanum, basil, and cinnamaldehyde oils on the survival of Salmonella sp. in packaged sliced tomato was studied. Five Salmonella serotypes were used namely, S. poona (cantaloupe associated outbreak), S. stanley H 1256 (Alfa Alfa sprout associated outbreak), S. baildon (tomato associated outbreak), S. typhimurium DT 104 and S. montevideo (tomato associated outbreak). Five μl of the cocktail was inoculated on top of three tomato slices in package to have a target inoculum of 5×10^6 CFU/slice. Then, 12, 35, and 75 μl of each volatile antimicrobial agent were pipetted into the wells of the separate packages. The packages were stored at 11° C. for 9 days. After 8 days of incubation mold was observed on some slices in some packages.
# The inoculated tomato slices were analyzed at day 0 and 9. Each slice was mixed with 90 ml 0.1% peptone water and stomached for 1 min. Next, 1 ml of the stomached material was diluted in 9 ml 0.1% peptone and spiral plated on MacCkonkey agar plates. The plates were incubated at 37° C. for 18 hr.
# The data was analyzed by the General Linear Method using SAS 9.1. […] All results are for Day 9 except for the control. All day 0 counts were the same as the control. […] The other results include both the volatile antimicrobial agent and absorbent materials.
# yeast and mold = settings: 4° C., up to 10 days
# [8] = system: pathogenic and aerobic microorganisms
compound,measurement,setting,value
"[O][Cl+][O-] [Chlorine Dioxide, chlorine dioxide]",effectiveness against Salmonella on slices,Salmonella sp. [1],most effective
same,effectiveness against Salmonella on slices,Salmonella sp. [1]; listed as Chlorine dioxide spray,little effect
same,Survival of Salmonella on sliced tomatoes (Table 2),Salmonella sp. [1]; Day 0,4.88 Log CFU/Slice
same,Survival of Salmonella on sliced tomatoes (Table 3),"Salmonella sp. [1]; Day 0, spray 2.54 ml/tray",5.27^bcd Log CFU/Slice
same,Survival of Salmonella on sliced tomatoes (Table 2),"Salmonella sp. [1]; Day 10, chlorine dioxide in absorbent, amount not given",4.32 Log CFU/Slice
same,Survival of Salmonella on sliced tomatoes (Table 3),"Salmonella sp. [1]; Day 10, spray 2.54 ml/tray",5.17^cde Log CFU/Slice
same,viable Salmonella in Portion 1 (top portion of skin),"Salmonella [2]; Table 4, Day 10, chlorine dioxide, amount not given",70 % of total survivors and 69 % of total survivors and 81 % of total survivors
same,viable Salmonella in Portion 1,"Salmonella [2]; Day 0, spray, listed as Chlorine Dioxide Spray",56 % of total survivors and 55 % of total survivors and 79 % of total survivors
same,Aerobic Plate Count of the absorbent in trays (Table 6),"aerobic microflora [3]; 4° C., chlorine dioxide, amount not given",4.63 Log CFU/ml
same,growth inhibition (APC) in the absorbent over the control absorbent,aerobic microflora [3],did not produce much additional growth inhibition
same,growth inhibition (APC) in the absorbent over the control absorbent,aerobic microflora [3]; listed as chlorine dioxide spray,increased growth inhibition
same,Salmonella in the absorbent in trays (Table 8),"Salmonella [4]; chlorine dioxide, amount not given",1.40 Log CFU/ml
same,Salmonella in the absorbent in trays (Table 9),Salmonella [4]; spray,2.21 Log CFU/ml
same,"Survival of Salmonella on sliced tomatoes, 5 days",Salmonella sp. [5]; 0.024 g per tray,6.32 Log CFU/g
same,"Survival of Salmonella on sliced tomatoes, 5 days",Salmonella sp. [5]; 0.052 g per tray,5.61 Log CFU/g
same,"Survival of Salmonella on sliced tomatoes, 5 days",Salmonella sp. [5]; 0.112 g per tray,5.90 Log CFU/g
same,"Survival of Salmonella on sliced tomatoes, 5 days",Salmonella sp. [5]; 0.25 g per tray,5.65 Log CFU/g
same,"Survival of Salmonella on sliced tomatoes, 5 days",Salmonella sp. [5]; 0.4 g per tray,5.96 Log CFU/g
same,"Survival of Salmonella on sliced tomatoes, 10 days","Salmonella sp. [5]; 10 days, 4° C., 0.024 g per tray",5.89 Log CFU/g
same,"Survival of Salmonella on sliced tomatoes, 10 days","Salmonella sp. [5]; 10 days, 4° C., 0.052 g per tray",5.65 Log CFU/g
same,"Survival of Salmonella on sliced tomatoes, 10 days","Salmonella sp. [5]; 10 days, 4° C., 0.112 g per tray",5.42 Log CFU/g
same,"Survival of Salmonella on sliced tomatoes, 10 days","Salmonella sp. [5]; 10 days, 4° C., 0.25 g per tray",5.32 Log CFU/g
same,"Survival of Salmonella on sliced tomatoes, 10 days","Salmonella sp. [5]; 10 days, 4° C., 0.4 g per tray",5.15 Log CFU/g
same,effect on Salmonella on tomato slices,"Salmonella sp. [5]; 10 days, 4° C., added to absorbent",significantly reduced levels
same,Aerobic Plate Count in the absorbent/juice,aerobic microflora [6]; 0.024 g per tray,<2.3 Log CFU/g
same,Aerobic Plate Count in the absorbent/juice,aerobic microflora [6]; 0.052 g per tray,4.62 Log CFU/g
same,Aerobic Plate Count in the absorbent/juice,aerobic microflora [6]; 0.112 g per tray,5.1 Log CFU/g
same,Aerobic Plate Count in the absorbent/juice,aerobic microflora [6]; 0.25 g per tray,<2.3 Log CFU/g
same,Aerobic Plate Count in the absorbent/juice,aerobic microflora [6]; 0.4 g per tray,<2.3 Log CFU/g
same,Salmonella in the absorbent/juice,Salmonella [7]; 0.024 g per tray,3.26 Log CFU/g
same,Salmonella in the absorbent/juice,Salmonella [7]; 0.052 g per tray,4.39 Log CFU/g
same,Salmonella in the absorbent/juice,Salmonella [7]; 0.112 g per tray,4.43 Log CFU/g
same,Salmonella in the absorbent/juice,Salmonella [7]; 0.4 g per tray,3.77 Log CFU/g
same,killing of Salmonella that dripped into the absorbent,Salmonella [7]; AITC at 36,reduced the pathogen numbers
"O=CC=Cc1ccccc1 [Cinnamaldehyde, cinnamaldehyde]","Salmonella on sliced tomatoes, Day 9",Salmonella spp.; 12 μl per package,5.76 ± 0.34 Log CFU/Slice
same,"Salmonella on sliced tomatoes, Day 9",Salmonella spp.; 35 μl per package,5.34 ± 0.02 Log CFU/Slice
same,Salmonella population,"Salmonella spp.; 9 days, 11° C., origanum 35 or 75, basil 12, cinnamaldehyde 12 and 35 μl",declined significantly
same,relative antimicrobial potency,"Salmonella spp.; among origanum, basil and cinnamaldehyde oils",most potent antimicrobial
same,Survival of Salmonella on sliced tomatoes (Table 3),"Salmonella sp. [1]; Day 10, 35 μl",4.78^fg Log CFU/Slice
same,Survival of Salmonella on sliced tomatoes (Table 3),"Salmonella sp. [1]; Day 10, 75 μl",4.67^fg Log CFU/Slice
same,viable Salmonella in Portion 1,"Salmonella [2]; Day 10, 75 μl",75 % of total survivors and 73 % of total survivors and 87 % of total survivors and 91 % of total survivors
same,growth inhibition (APC) in the absorbent over the control absorbent,aerobic microflora [3],little growth inhibition
same,Salmonella in the absorbent in trays (Table 9),Salmonella [4]; 35 μl,2.83 Log CFU/ml
same,Salmonella in the absorbent in trays (Table 9),Salmonella [4]; 75 μl,2.04 Log CFU/ml
"C/C=C/C=C/C(=O)[O-].[K+] [Potassium sorbate, potassium sorbate]",bacteria in tomato juice in gel,"total bacterial count; 4° C., up to 10 days",kills bacteria
same,"preservation of the gel / growth of yeast, mold and bacteria compared to the control","total bacterial count; 10 day period, 4° C. storage temperature",adequate to preserve the gel
same,yeast and mold growth in tomato juice in gel,yeast and mold,allows little growth
same,effectiveness of higher vs lower levels,[8],marginally more effective
same,inhibition of growth of pathogenic and aerobic microorganisms in the gel/tomato juice mixture,[8],effective at inhibiting growth
"O=C(O)CC(O)(CC(=O)O)C(=O)O [Citric acid, citric acid]",yeast and mold growth in tomato juice in gel,yeast and mold,little effect
